In the experiment the target is T1, BTK (Homo sapiens, UniProt Q06187).
T1 construct: endogenous in cells; host or cells: Ramos (ATCC CRL-1596)
Description: Cellular BTK HTRF Assay (BTK levels in Ramos cells). Type of experiment: cell-based. The following applies: Ramos cells, 50,000 cells, incubated four hours at 37° C.; BTK levels by Cisbio Total-BTK HTRF relative to DMSO-treated cells. As to the method: Ramos (CRL-1596) cells were obtained from American Type Culture Collection and were grown in RPMI-1640 media (ATCC, 30-2001) supplemented with 10% heat-inactivated FBS (Corning Premium Fetal Bovine Serum from Fisher, MT35015CV).
Compounds of the present invention were added to 50,000 Ramos cells in round-bottom 96 well plates with a final DMSO concentration of […] and were incubated at 37° C. 5% CO2 for four hours. BTK levels were determined using Cisbio Total-BTK HTRF ([…] Time-Resolved Fluorescence) kit (63ADK064PEG) according to manufacturer's protocol. Briefly, cells were incubated in 1× supplied lysis buffer for 30 minutes. In an opaque white low volume 96 well plate (Cisbio, 66PL96005), cell lysate was combined with two different specific BTK antibodies, one conjugated with Eu^3+-Cryptate FRET donor and one conjugated with d2 FRET acceptor. Assay controls include wells containing cell lysate with only the Eu^3+-Cryptate FRET donor antibody and wells containing both HTRF antibodies and lysis buffer without cells or control lysate provided by Cisbio. HTRF ratio was calculated as (acceptor signal at 665 nm/donor signal at 620 nm)×10^4. Background HTRF levels were determined from the control well containing the donor, but no acceptor, antibody. Background HTRF levels were subtracted from all samples. Readouts were reported as HTRF levels relative to HTRF levels of DMSO-treated cells. Four-parameter non-linear regressions were performed in GraphPad Prism 7.02 to obtain DC50 values. DC50 values are provided in Table 7, wherein A<1 nM, 1 nM≤B≤10 nM, and 10 nM<C<1 μM.

T1 sequence (Q06187 whole entry): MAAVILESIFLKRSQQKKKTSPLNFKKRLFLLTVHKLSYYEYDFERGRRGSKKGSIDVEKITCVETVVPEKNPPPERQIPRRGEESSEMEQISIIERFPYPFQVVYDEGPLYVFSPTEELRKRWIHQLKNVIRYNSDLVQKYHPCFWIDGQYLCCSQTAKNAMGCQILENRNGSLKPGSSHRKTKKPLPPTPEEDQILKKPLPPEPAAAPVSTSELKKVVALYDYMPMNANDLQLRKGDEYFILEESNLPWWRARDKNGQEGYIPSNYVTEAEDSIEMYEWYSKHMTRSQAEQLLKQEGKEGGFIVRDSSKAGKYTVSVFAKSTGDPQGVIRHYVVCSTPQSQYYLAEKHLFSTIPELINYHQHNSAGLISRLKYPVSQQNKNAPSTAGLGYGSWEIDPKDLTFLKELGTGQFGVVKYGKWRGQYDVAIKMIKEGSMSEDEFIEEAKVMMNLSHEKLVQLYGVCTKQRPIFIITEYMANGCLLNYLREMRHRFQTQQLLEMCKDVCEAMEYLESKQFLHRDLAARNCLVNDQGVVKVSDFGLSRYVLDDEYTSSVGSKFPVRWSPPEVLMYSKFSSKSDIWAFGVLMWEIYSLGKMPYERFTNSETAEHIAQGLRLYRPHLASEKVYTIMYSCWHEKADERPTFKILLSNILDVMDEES

Consider `C[C@H]1CN(C(=O)CN2CCN(Cc3cccc4c3CN(C3CCC(=O)NC3=O)C4=O)CC2)CCN1c1ccc(Nc2cc(-c3ccnc(N4CCn5c(cc6c5CC(C)(C)C6)C4=O)c3CO)cn(C)c2=O)nc1` (stereo partly shown) [Compound 27], for which the DC50 was in the range of 10 to 1000 nM.

The values above are taken from US20230024442A1, “BIFUNCTIONAL COMPOUNDS FOR GRADING BTK VIA UBIQUITIN PROTEOSOME PATHWAY” (NURIX THERAPEUTICS, INC., priority 2019, published 2023).
